Patent publication US7033812B2, “β-secretase and modulation of β-secretase activity” (Scios Inc., priority 1999, dated 2006)

Test system: neutral β-secretase activity
Assay: β-secretase ELISA (βNTF) with partially purified APP/β-secretase mixture, pH 7.0
Format: biochemical, human

Compound	β-secretase inhibition (pH 7)	detectable levels of β-secretase activity (cardiolipin 0.01–100 μM in assay buffer, pH 7.0, 37° C. 16 hours, FIG. 4A)
NCCc1ccc(S(=O)(=O)F)cc1 [AEBSF]	dose-dependent β-secretase inhibition	–
cardiolipin	–	dose-dependent increase
